Laboratory results as given in the supplement of paper PMC10307832.

Experiments:
Assay in all cases: relative viability (nuclei count vs DMSO), 5 days (fraction); higher = more cells survive
BGJ398 + Crizotinib = compound: CCN1CCN(c2ccc(Nc3cc(N(C)C(=O)Nc4c(Cl)c(OC)cc(OC)c4Cl)ncn3)cc2)CC1 [BGJ398] + C[C@@H](Oc1cc(-c2cnn(C3CCNCC3)c2)cnc1N)c1c(Cl)ccc(F)c1Cl [Crizotinib] (partner 1 µM)
Method in brief: (§1)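 Medians of duplicate plates are given as relative viability. That measure is the nuclei count in treated wells divided by the count in vehicle wells. Counts were taken on 4× images of lung cancer cell lines in 1536-well plates, 5 days after pin-tool dosing the day after seeding with one drug alone or a fixed anchor-drug dose plus five library-drug doses (not always all listed) in √10 steps.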

BGJ398 + Linsitinib = compound: CCN1CCN(c2ccc(Nc3cc(N(C)C(=O)Nc4c(Cl)c(OC)cc(OC)c4Cl)ncn3)cc2)CC1 [BGJ398] + C[C@]1(O)C[C@@H](c2nc(-c3ccc4ccc(-c5ccccc5)nc4c3)c3c(N)nccn32)C1 [Linsitinib] (partner 1 µM)
Method in brief: as §1

[1] = compound: C1=CC2=NC=CN=C2C=C1/C=C/3\C(=O)NC(=O)S3 + CC(=O)c1c(C)c2cnc(Nc3ccc(N4CCNCC4)cn3)nc2n(C2CCCC2)c1=O [Palbociclib] (partner 0.5 µM)
Method in brief: as §1

[2] = compound: C1=CC2=NC=CN=C2C=C1/C=C/3\C(=O)NC(=O)S3 + CC1(C)CCC(c2ccc(Cl)cc2)=C(CN2CCN(c3ccc(C(=O)NS(=O)(=O)c4ccc(N[C@H](CCN5CCOCC5)CSc5ccccc5)c(S(=O)(=O)C(F)(F)F)c4)cc3)CC2)C1 [Navitoclax] (partner 0.5 µM)
Method in brief: as §1

Cell Line	relative viability (BGJ398 + Crizotinib; first compound 0.01 µM)	relative viability (BGJ398 + Crizotinib; first compound 0.03162 µM)	relative viability (BGJ398 + Crizotinib; first compound 0.1 µM)	relative viability (BGJ398 + Crizotinib; first compound 0.3162 µM)	relative viability (BGJ398 + Crizotinib; first compound 1 µM)	relative viability (BGJ398 + Linsitinib; first compound 0.01 µM)	relative viability (BGJ398 + Linsitinib; first compound 0.03162 µM)	relative viability (BGJ398 + Linsitinib; first compound 0.1 µM)	relative viability (BGJ398 + Linsitinib; first compound 0.3162 µM)	relative viability (BGJ398 + Linsitinib; first compound 1 µM)	relative viability ([1]; first compound 0.02 µM)	relative viability ([1]; first compound 0.06325 µM)	relative viability ([1]; first compound 0.2 µM)	relative viability ([1]; first compound 0.6325 µM)	relative viability ([1]; first compound 2 µM)	relative viability ([2]; first compound 0.02 µM)	relative viability ([2]; first compound 0.06325 µM)	relative viability ([2]; first compound 0.2 µM)	relative viability ([2]; first compound 0.6325 µM)	relative viability ([2]; first compound 2 µM)
201T	1.12	0.988	0.996	1.01	0.981	1.17	1.08	1.07	1.06	1.01	0.341	0.347	0.349	0.358	0.343	1.18	1.26	1.19	1.21	1.18
A549	0.73	0.811	0.758	0.843	0.783	0.637	0.53	0.857	0.569	0.658						1.24	1.43	1.22	1.02	1.11
A-427	0.905	0.72	0.698	0.598	0.517	1.12	1.15	1.15	0.884	0.799	0.498	0.561	0.507	0.524	0.533	0.935	0.977	0.993	0.934	0.877
ABC-1	1.05	1.36	1.19	0.925	1.42	0.685	1.01	0.746	0.999	0.658	0.75	0.699	0.726	0.662	0.645					
BEN	0.735	0.871	0.893	0.81	0.797	0.935	0.95	0.89	0.818	0.798	0.491	0.422	0.492	0.475	0.448	0.0591	0.0567	0.065	0.0608	0.0653
CAL-12T	0.68	0.796	0.548	0.811	0.631	0.774	0.782	0.882	0.773	0.756	0.394	0.664	0.454	0.48	0.403	1.3	1.13	1.09	1.24	1.49
COR-L23	0.588	0.826	0.598	0.762	0.653	0.929	0.873	1.04	0.975	0.923	0.276	0.281	0.295	0.3	0.235	0.919	1.08	1.03	0.946	0.962
COR-L 105	0.737	0.844	0.879	0.86	0.819	0.824	1.09	0.851	0.777	0.8	0.429	0.423	0.387	0.349	0.412	0.697	0.703	0.821	0.678	0.999
Calu-6	0.737	0.86	0.948	0.745	0.781	0.932	0.969	0.901	0.922	0.952						0.848	0.895	0.782	0.853	0.87
ChaGo-K-1	1.09	1.18	1.21	0.991	1.05						0.888	0.69	0.971	0.917	0.947	1.06	1.67	1.28	0.924	0.726
EBC-1	0.198	0.201	0.17	0.199	0.197	0.875	0.968	0.941	0.877	0.703						0.43	0.437	0.545	0.38	0.51
EKVX	0.819	0.919	0.901	0.991	0.917	0.776	0.859	1.17	1.05	1.05	0.384	0.428	0.342	0.381	0.405	0.931	0.865	0.916	0.957	0.822
EMC-BAC-2	0.726	0.816	0.798	0.746	0.669	0.815	0.785	0.842	0.825	0.872	0.496	0.568	0.54	0.498	0.384	1.11	1.03	1.15	1.12	1.25
EPLC-272H	0.903	0.814	0.964	0.8	0.968	1.16	1.16	1.2	1	1.22	0.327	0.25	0.349	0.344	0.292	1.08	1.03	1.41	1.01	1.1
H3255	0.798		0.877	0.634	0.829	0.887	0.35	0.919	0.708	1.05	0.328	0.342	0.314	0.318	0.307	0.533	0.421	0.581	0.449	0.498
HARA	0.953	1.06	1.04	1.02	1.07	0.845	0.856	0.903	0.978	0.902	0.27	0.261	0.241	0.213	0.238	1.1	1.11	1.17	1.16	1.09
HCC-15	0.861	0.825	0.782	0.885	0.9	0.981	0.968	0.921	0.981	0.936	0.708	0.715	0.71	0.725	0.657	0.662	0.655	0.746	0.679	0.682
